Test results taken from US8759073B2, “Method for effectively controlling harmful organisms in large-scale culture of microalgae” (ENN Science & Technology Development Co., Ltd., priority 2009, dated 2014).
Entries after “also recorded” stand apart in the source; their conditions may differ.

Assays:
ciliate = assay: Control of ciliate contamination (mixed contamination) in microalgae culture, microscope examination; format: cell-based
Text: In an embodiment, the pH of the culture system is first raised by alkalis, followed by aeration of CO2 to saturation. When the harmful organisms are observed as being in control under a microscope (for example, these harmful organisms such as Oxyrrhis, Amoeba and ciliate cannot be observed under a microscope or the activity of the harmful organisms has been reduced), the pH value is then adjusted back to the optimal pH suitable for microalgae growth by sufficiently aerating air. In an embodiment, an interval of 1 hour exists between the step of raising pH of the culture system with an alkali and the step of aerating CO2 to saturation. In an embodiment, said alkali can be ammonia. In an embodiment, said alkali can be 1M NaOH. […] In an embodiment, the pH of the culture system is adjusted to 11.5-12.0, 11.0-11.8 or 8.0-11.0 with 1M NaOH or 1M ammonia. In an embodiment, the pH of the culture system is adjusted to 11.5-12.0, 11.0-11.8 or 8.0-11.0 and maintained for 1 hours, followed by aeration of CO2 to saturation for about 24 hours. In an embodiment, the pH of the culture system is adjusted to 11.5-12.0, 11.0-11.8 or 8.0-11.0 and maintained for 1 hours, followed by aeration of CO2 to saturation for about 23 hours.
Chlorella sp. […] Modified SM medium (see Table 2) was used. […] Then air was sufficiently aerated.
Chlorococcum sp. […] Modified BG11 medium (see Table 3) was used. […] Then air was sufficiently aerated. Eighteen hours later, Chlorococcum sp. could resume to grow.
Modified SM (see Table 2) was used. […] Then air was sufficiently aerated. Twenty-four hours later, the algae could resume to grow.
Then air was sufficiently aerated. Eighteen hours later, Chlorococcum sp. could resume to grow.
Modified SM (see Table 2) was used. […] One hour later, CO2 was aerated to saturation for 23 hour continuously (about pH 5.8). […] Then air was sufficiently aerated. Twenty-four hours later, the algae could resume to grow.

Dunaliella tertiolecta = assay: Growth of cultured algae after treatment, 120 L bubbling reactor; format: cell-based; conditions: Example 1; CO2 intermittently pH 6.0-6.5 for 2 days, salinity decreased by 1%
Text: Salinity was reduced by 1% (e.g. from 9% to 8%) by way of dilution with water. Then air was sufficiently aerated.

O=C=O [CO2, carbon dioxide]
ciliates, result of microscope examination (ciliate; Example 4, after 1M NaOH pH 11.0-11.8 1 h, CO2 to saturation (pH 5.6) 24 hours): a few inactive and immotile ciliates | ciliates, result of microscope examination (ciliate; Example 7, after 1M NaOH pH 11.5-12.0 1 h, CO2 to saturation (about pH 5.6) 24 hour): a few inactive and immotile ciliates | ciliates, result of microscope examination (ciliate; Example 10, after 1M NaOH pH 11.5-12.0 1 h, CO2 to saturation (about pH 5.8) 23 hour): a few inactive and immotile ciliates | ciliates, result of microscope examination (ciliate; Example 12, after 1M ammonia pH 9.0 1 h, CO2 to saturation (pH 5.6) 24 hours): a few inactive and immotile ciliates | ciliates, result of microscope examination (ciliate; Example 14, after 1M ammonia pH 9.0 1 h, CO2 to saturation (about pH 5.6) 24 hour): a few inactive and immotile ciliates | ciliates, result of microscope examination (ciliate; Example 15, after 1M ammonia pH 10.0 1 h, CO2 to saturation (about pH 5.8) 23 hour): a few inactive and immotile ciliates | impact on the growth of algae (Dunaliella tertiolecta): not affected essentially; also recorded: little impact on the growth of algae
